Legend:
[1] = system: anti-β1EC2-induced β1-AR/cAMP signaling in HEKβ1-cells; experiment: FRET cAMP assay (Epac1-camps), blockade of anti-β1EC2-induced signals; assay type: cell-based, human; details: HEKβ1-cells with Epac1-camps FRET-sensor; IgG pre-incubated with peptide (Fig. 1F)
Method: The effects of anti-β1EC2 on β1AR-mediated intracellular cAMP-production were assessed by measuring fluorescence resonance energy transfer (FRET) in HEKβ1-cells transiently transfected with a FRET-sensor for cAMP, Epac1-camps. The sensor consists of the cAMP-binding protein Epac1 flanked by enhanced cyan or yellow fluorescent protein. […] IgG-preparations were added to the cells at 0.13 μg/μl protein concentration; 2μM (-)isoproterenol (Sigma) was used as a reference to determine the maximal cAMP-response. To test the blocking-efficacy of β1EC2-CP on anti-β1EC2-induced adrenergic signaling, the different IgG-preparations were pre-incubated with β1EC2-CP (20 μg/μl) for 6 h at 4 °C; for pharmacological blockade of anti-β1EC2-induced signals we utilised 5.0μM bisoprolol.
(D) Immunostaining experiments with rat anti- β1EC2 (1:100) using HEK-cells stably expressing β1-ARs (HEK β1) or not (wild type; HEK WT). IgG was prepared from anti- β1EC2-positive rats or 0.9% NaCl-injected control rats. Amino-terminal β1AR-specific rabbit anti-bodies (1:250) served as positive controls. […] HEK β1-cells were transfected with the cAMP-sensor Epac1-camps, which reacts to cAMP-binding with a reduction in fluorescence resonance energy transfer (FRET) between its fluorophores cyan (CFP) and yellow fluorescent protein (YFP). […] Representative FRET-ratio traces of 1/5 experiments are shown. Values are given in % of maximal cAMP-response achieved with 0.3μM (-)isoproterenol (Iso).

[2] = system: rat anti-β1EC2; experiment: Competition-ELISA, blocking of rat anti-β1EC2; assay type: binding; details: preincubation (12h, 4°C) with 40-fold excess of peptide; linear β1EC2-peptides (AA199-223) as antigen; n = 20 (Fig. 1B)

## cyclo(RATHQEAINCYANETCCDFFTNQG) (cysteine pairing not given here) [β2EC2-CP, control for specificity, reference compound]
[1]
  blockade of anti-β1EC2-induced cAMP-signals, in words: not blocked at all
[2]
  blocking of anti-β1EC2 in competition-ELISA, in words: not blocked at all

Reference: publication PMC4336331, “Novel Receptor-Derived Cyclopeptides to Treat Heart Failure Caused by Anti-β1-Adrenoceptor Antibodies in a Human-Analogous Rat Model” (PLoS ONE, 2015)
